Tests used:
[1] = system: Puccinia recondita f. Sp. Tritici; test: Fungicidal activity against Puccinia recondita f. sp. tritici / wheat / leaf disc preventative (brown rust); type: in vivo; conditions: foliar, 200 ppm in the applied formulation, wheat leaf segments, preventative, compared to untreated control leaf disks, read-out: disease control
In short: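 Compound application precedes infection: segments of wheat cv. Kanzler, sprayed at 200 ppm, are inoculated with a spore suspension after 1 day. Incubation is at 19° C. with 75% relative humidity and 12 h light/12 h darkness, and control versus untreated leaves is rated 7 to 9 days post-application.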

[2] = system: Glomerella lagenarium (Colletotrichum lagenarium); test: Fungicidal activity against Glomerella lagenarium (Colletotrichum lagenarium) liquid culture / cucumber / preventative (anthracnose); type: cell-based; conditions: Colletotrichum orbiculare; 20 ppm in the applied formulation; liquid culture (PDB), growth inhibition measured photometrically after 3 to 4 days; compared to untreated control; read-out: disease control
In short: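 Photometric read-out of fungal growth after 2–7 days, expressed as percent antifungal activity versus untreated check. Cryo-stored conidia in PDB; compound at 20 ppm; dark, 24 °C, 96% RH.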

[3] = system: Puccinia recondita f. Sp. Tritici; test: Fungicidal activity against Puccinia recondita f. sp. tritici / wheat / leaf disc curative (brown rust); type: in vivo; conditions: foliar, 24 h, 200 ppm in the applied formulation, wheat leaf segments, curative (applied 1 day after inoculation), compared to untreated control leaf disks, read-out: disease control
In short: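 Inoculate cv. Kanzler segments on agar; hold dark, 19° C, 75% RH. Spray diluted formulated compound at day 1. Incubate 12 h light/12 h dark, same temperature and humidity; score % control vs untreated 6–8 days later.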

[4] = system: Phakopsora Pachyrhizi; test: Fungicidal activity against Phakopsora pachyrhizi / soybean / leaf disc preventative (Asian soybean rust); type: in vivo; conditions: foliar, 200 ppm in the applied formulation, soybean leaf disks, compared to untreated control leaf disks, read-out: disease control
In short: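 Preventative soybean leaf-disc test: discs on water agar sprayed with diluted formulated compound, inoculated one day later with spores on the lower surface. Held 24–36 h dark at 20°C, 75% rh, then 12 h light/day; percent disease control versus untreated discs scored 12–14 days after application.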

C#CCN(Cc1ccc(-c2noc(C(F)(F)F)n2)cc1)C(=O)CC(F)(F)F [Compound 1.177, 3,3,3-trifluoro-N-prop-2-ynyl-N-[[4-[5-(trifluoromethyl)-1,2,4-oxadiazol-3-yl]phenyl]methyl]-propanamide]
≥ 80%: pest or weed control at 200 ppm [1] | inhibition of growth at 20 ppm [2] | pest or weed control at 200 ppm [3] | pest or weed control at 200 ppm [4]

N#CC1(C(=O)N(Cc2ccc(-c3noc(C(F)(F)F)n3)cc2)CC2CC2)CC1 [Compound 1.244, 1-cyano-N-(cyclopropylmethyl)-N-[[4-[5-(trifluoromethyl)-1,2,4-oxadiazol-3-yl]phenyl]methyl]-cyclopropane-carboxamide]
≥ 80%: pest or weed control at 200 ppm [1] | inhibition of growth at 20 ppm [2] | pest or weed control at 200 ppm [3] | pest or weed control at 200 ppm [4]

COCCN(Cc1ccc(-c2noc(C(F)(F)F)n2)cc1)C(=O)C1CC1(F)F (stereo not shown) [Compound 1.327, 2,2-difluoro-N-(2-methoxyethyl)-N-[[4-[5-(trifluoromethyl)-1,2,4-oxadiazol-3-yl]phenyl]methyl]-cyclopropane-carboxamide]
≥ 80%: pest or weed control at 200 ppm [1] | inhibition of growth at 20 ppm [2] | pest or weed control at 200 ppm [3] | pest or weed control at 200 ppm [4]

CCN(Cc1ccc(-c2noc(C(F)(F)F)n2)cc1)C(=O)CCOC [Compound 1.496, N-ethyl-3-methoxy-N-[[4-[5-(trifluoromethyl)-1,2,4-oxadiazol-3-yl]phenyl]methyl]-propanamide]
≥ 80%: pest or weed control at 200 ppm [1] | inhibition of growth at 20 ppm [2] | pest or weed control at 200 ppm [3] | pest or weed control at 200 ppm [4]

COCCCC(=O)N(C)Cc1ccc(-c2noc(C(F)(F)F)n2)cc1 [Compound 1.526, 4-methoxy-N-methyl-N-[[4-[5-(trifluoromethyl)-1,2,4-oxadiazol-3-yl]phenyl]methyl]-butanamide]
≥ 80%: pest or weed control at 200 ppm [1] | inhibition of growth at 20 ppm [2] | pest or weed control at 200 ppm [3] | pest or weed control at 200 ppm [4]

C#CCN(Cc1ccc(-c2noc(C(F)(F)F)n2)cc1)C(=O)C(=C)C [Compound 1.187, 2-methyl-N-prop-2-ynyl-N-[[4-[5-(trifluoromethyl)-1,2,4-oxadiazol-3-yl]phenyl]methyl]-prop-2-enamide]
≥ 80%: pest or weed control at 200 ppm [1] | inhibition of growth at 20 ppm [2] | pest or weed control at 200 ppm [3] | pest or weed control at 200 ppm [4]

CON(Cc1ccc(-c2noc(C(F)(F)F)n2)cc1)C(=O)CC1CC1 [Compound 1.26, 2-cyclopropyl-N-methoxy-N-[[4-[5-(trifluoromethyl)-1,2,4-oxadiazol-3-yl]phenyl]methyl]-acetamide]
≥ 80%: pest or weed control at 200 ppm [1] | inhibition of growth at 20 ppm [2] | pest or weed control at 200 ppm [3] | pest or weed control at 200 ppm [4]

CCC(COC)C(=O)N(O)Cc1ccc(-c2noc(C(F)(F)F)n2)cc1 (stereo not shown) [Compound 1.768, N-hydroxy-2-(methoxymethyl)-N-[[4-[5-(trifluoromethyl)-1,2,4-oxadiazol-3-yl]phenyl]methyl]-butanamide]
≥ 80%: pest or weed control at 200 ppm [1] | inhibition of growth at 20 ppm [2] | pest or weed control at 200 ppm [3] | pest or weed control at 200 ppm [4]

CN(Cc1ccc(-c2noc(C(F)(F)F)n2)cc1)C(=O)C1CC1 [Compound 1.532, N-methyl-N-[[4-[5-(trifluoromethyl)-1,2,4-oxadiazol-3-yl]phenyl]methyl]-cyclopropane-carboxamide]
≥ 80%: pest or weed control at 200 ppm [1] | inhibition of growth at 20 ppm [2] | pest or weed control at 200 ppm [3] | pest or weed control at 200 ppm [4]

CCC(C)N(Cc1ccc(-c2noc(C(F)(F)F)n2)cc1)C(=O)CC(F)(F)F (stereo not shown) [Compound 1.404]
≥ 80%: pest or weed control at 200 ppm [1] | inhibition of growth at 20 ppm [2] | pest or weed control at 200 ppm [3] | pest or weed control at 200 ppm [4]

C=CCN(Cc1ccc(-c2noc(C(F)(F)F)n2)cc1)C(=O)C1CC1C (stereo not shown) [Compound 1.480, N-allyl-2-methyl-N-[[4-[5-(trifluoromethyl)-1,2,4-oxadiazol-3-yl]phenyl]methyl]-cyclopropane-carboxamide]
≥ 80%: pest or weed control at 200 ppm [1] | inhibition of growth at 20 ppm [2] | pest or weed control at 200 ppm [3] | pest or weed control at 200 ppm [4]

C=CCN(Cc1ccc(-c2noc(C(F)(F)F)n2)cc1)C(=O)C1OCCO1 [Compound 1.493, N-allyl-N-[[4-[5-(trifluoromethyl)-1,2,4-oxadiazol-3-yl]phenyl]methyl]-1,3-dioxolane-2-carboxamide]
≥ 80%: pest or weed control at 200 ppm [1] | inhibition of growth at 20 ppm [2] | pest or weed control at 200 ppm [3] | pest or weed control at 200 ppm [4]

CCCN(Cc1ccc(-c2noc(C(F)(F)F)n2)cc1)C(=O)C1CCC1 [Compound 1.656, N-propyl-N-[[4-[5-(trifluoromethyl)-1,2,4-oxadiazol-3-yl]phenyl]methyl]-cyclobutane-carboxamide]
≥ 80%: pest or weed control at 200 ppm [1] | inhibition of growth at 20 ppm [2] | pest or weed control at 200 ppm [3] | pest or weed control at 200 ppm [4]

CCCON(Cc1ccc(-c2noc(C(F)(F)F)n2)cc1)C(=O)C1CC1F (stereo not shown) [Compound 1.315, 2-fluoro-N-propoxy-N-[[4-[5-(trifluoromethyl)-1,2,4-oxadiazol-3-yl]phenyl]methyl]-cyclopropane-carboxamide]
≥ 80%: pest or weed control at 200 ppm [1] | inhibition of growth at 20 ppm [2] | pest or weed control at 200 ppm [3] | pest or weed control at 200 ppm [4]

O=C(c1ccccc1)N(Cc1ccc(-c2noc(C(F)(F)F)n2)cc1)C1CC1 [Compound 1.150, N-cyclopropyl-N-[[4-[5-(trifluoromethyl)-1,2,4-oxadiazol-3-yl]phenyl]methyl]-benzamide]
≥ 80%: pest or weed control at 200 ppm [1] | inhibition of growth at 20 ppm [2] | pest or weed control at 200 ppm [3] | pest or weed control at 200 ppm [4]

CCON(Cc1ccc(-c2noc(C(F)(F)F)n2)cc1)C(=O)C(C)OC (stereo not shown) [Compound 1.629, N-ethoxy-2-methoxy-N-[[4-[5-(trifluoromethyl)-1,2,4-oxadiazol-3-yl]phenyl]methyl]-propanamide]
≥ 80%: pest or weed control at 200 ppm [1] | inhibition of growth at 20 ppm [2] | pest or weed control at 200 ppm [3] | pest or weed control at 200 ppm [4]

CCC(COC)C(=O)N(Cc1ccc(-c2noc(C(F)(F)F)n2)cc1)C(C)C (stereo not shown) [Compound 1.680, N-isopropyl-2-(methoxymethyl)-N-[[4-[5-(trifluoromethyl)-1,2,4-oxadiazol-3-yl]phenyl]methyl]-butanamide]
≥ 80%: pest or weed control at 200 ppm [1] | inhibition of growth at 20 ppm [2] | pest or weed control at 200 ppm [3] | pest or weed control at 200 ppm [4]

CC(C)N(Cc1ccc(-c2noc(C(F)(F)F)n2)cc1)C(=O)CC1CC1 [Compound 1.688, 2-cycloopropyl-N-isopropyl-N-[[4-[5-(trifluoromethyl)-1,2,4-oxadiazol-3-yl]phenyl]methyl]-acetamide]
≥ 80%: pest or weed control at 200 ppm [1] | inhibition of growth at 20 ppm [2] | pest or weed control at 200 ppm [3] | pest or weed control at 200 ppm [4]

CCC(C)C(=O)N(O)Cc1ccc(-c2noc(C(F)(F)F)n2)cc1 (stereo not shown) [Compound 1.765, N-hydroxy-2-methyl-N-[[4-[5-(trifluoromethyl)-1,2,4-oxadiazol-3-yl]phenyl]methyl]-butanamide]
≥ 80%: pest or weed control at 200 ppm [1] | inhibition of growth at 20 ppm [2] | pest or weed control at 200 ppm [3] | pest or weed control at 200 ppm [4]

— patent US11180462B2, “Microbiocidal oxadiazole derivatives” (SYNGENTA PARTICIPATIONS AG, priority 2015, dated 2021)
